In article PMC3460729, “Innate immune properties of selected human neuropeptides against Moraxella catarrhalis and nontypeable Haemophilus influenzae” (BMC Immunology, 2012):
Marks after values point to notes of the source that are not given here.

Assays:
human PMNs [1] = experiment: PMA-induced chemiluminescence in PMNs; format: cell-based; details: 0.1 μM PMA, 0 to 60 min; five independent experiments in triplicate, 5 donors
Procedure: Reactive oxygen species (ROS) formation by PMNs was measured using luminol-dependent chemiluminescence assay (CL) in white flat-bottom 96-well microplates (NUNC, Denmark). The reaction mixture of total volume 200 μl in each well contained: 100 μl of PMN suspension in HBSS–Ca^++Mg^++ (10^5 cells/well), 40 μl of luminol (50 μM/well), 40 μl of fMLP (0.2 μM/well), 20 μl of particular NP (in the range 10^−12–10^−8 M/well). In other experiments, the respiratory burst was triggered by phagocytosis of 40 μl heat killed (56°C/30 min) M. catarrhalis ATCC 25238 or H. influenzae ATCC 49247 at concentration of ½ of OD600 = 1 or OD600 = 1, respectively. […] The PMA stimulus at 0.1 μM final concentration was used as positive control of the relevant oxidative stress. The CL kinetics was measured at constant 37°C temperature using luminometer (Microlumat, LB96P, Berthold) and recorded as relative light units (RLU). Measuring conditions for fMLP were: interval (46 s), run time (up to 30 min). The conditions for bacterial and PMA stimulation were: interval (83 s), run time (up to 60 min). The maximal value of CL response curve was expressed as peak height (PHCL) for fMLP stimulant. In other cases the area under chemiluminescence curve (AUCCL) was calculated. Each sample was run in triplicate and the values were averaged. […] Results were expressed as mean ± SD. […]

[2] = tested on: nontypeable H. influenzae NTHi3, NTHi6; experiment: Time kill assay from 0 to 1.5 h; format: cell-based, Haemophilus influenzae; details: 100 μM, clinical isolates of H. influenzae
Procedure: (§1) For the time kill assay from 0 to 1.5 h, overnight cultures of Mc and NTHi were inoculated into new medium and incubated under the relevant conditions until early log-phase (OD600 = 0.25–0.3). The bacteria were diluted in 10 mM sodium phosphate buffer, NaPB, (pH 7.4) containing 1% (w/v) BHI to obtain ~2 x 10^6 CFU/ml. […] After each time of incubation the suspensions were 10-fold serially diluted with 10 mM NaPB-1% BHI and 20 μl aliquots were plated in triplicate on BHI (M. catarrhalis) or HAEM (H. influenzae) agar plates. The plates were incubated overnight at 37°C in 5% CO2 conditions. Simultaneously, the incubation of bacteria in the presence of an appropriate diluent was included for positive control of bacterial growth. The colony counts and CFU/ml were calculated next day. The bactericidal activity of neuropeptides was expressed as survival ratios determined as the numbers of CFU after neuropeptide incubation divided by the numbers of CFU estimated from a control plate (time 0). All antimicrobial assays were performed at least two times in triplicate.

E. coli ML-35p = experiment: ONPG-mediated β-galactosidase membrane permeability assay; format: cell-based, Escherichia coli; details: for time of maximal OD increase (ONPG influx): 100 μM neuropeptide; for ID50 (inducible dose) for intracellular influx of ONPG: dose causing 50% increase in OD405 in reference to chloroform-inducible maximum at 45 min, 10^6 CFU/ml, NaPB pH 7.4, 3 mM ONPG, 37°C, triplicate
Procedure: To measure the activity of neuropeptides in permeabilization of bacterial membrane, the ONPG-mediated β-galactosidase microplate assay was used. Permeabilization was measured using E. coli ML-35 with constitutive cytoplasmic β-galactosidase activity as previously described. Briefly, 18 h E. coli ML-35p in TSB was recultivated in TSB until mid-log phase (OD600 = 0.5). Flasks were put on ice for 20 min, and 2 ml of bacterial suspensions were transferred to Eppendorf tubes, washed twice with 10 mM sodium phosphate NaPB (pH 7.4) and suspended in NaPB to OD600 = 0.5. […] Microplates were incubated at 37°C for 1.5 h and optical densities were measured every 15 minutes at λ=405 nm (spectrophotometer Opsys MR Dynex Technologist). All the assays were performed in triplicate. Two positive controls were used: polymyxin B at the final concentration of 1 μg/ml as an established model of peptide permeabilizing action, and 20% chloroform (v/v). […] The molar concentration of NP that caused such increase was extrapolated from a linear portion of NP titration curve. Negative controls constituted bacteria incubated with NaPB and ONPG but without neuropeptides.

M. catarrhalis Mc5, Mc6 = experiment: Time kill assay from 0 to 1.5 h; format: cell-based, Moraxella catarrhalis; details: 100 μM
Procedure: as §1

[3] = tested on: human PMNs stimulated with M. catarrhalis ATCC 25238; experiment: M. catarrhalis-stimulated ROS generation by PMNs, luminol-dependent chemiluminescence; format: cell-based; details: 10^−8 M NP, nonopsonized M. catarrhalis; mean ± SD, n = 5-6 donors
Procedure: (§2) Polymorphonuclear leukocytes (PMNs) from healthy young adult volunteers were isolated from venous blood samples anticoagulated with Lithium-heparin (7.5 ml) by ficoll (Aqua-Med, Poland) density gradient centrifugation (2000 rpm/30 min), followed by hypotonic lysis of erythrocytes with a lysing buffer (0.83% NH4Cl, 0.1% KHCO3, EDTA, pH 7.4). After two washes (1400 rpm/10 min) in PBS, PMNs were resuspended to the final concentration of […] cells/ml in phagocytic buffer: HBSS with Ca^++ and Mg^++ supplemented with 1% HiFBS. The purity of granulocyte suspensions was checked using 15 μg/ml of acridine orange. […] Isolated PMNs were kept for 30 min at 37°C and 5% CO2 until used.
Reactive oxygen species (ROS) formation by PMNs was measured using luminol-dependent chemiluminescence assay (CL) in white flat-bottom 96-well microplates (NUNC, Denmark). The reaction mixture of total volume 200 μl in each well contained: 100 μl of PMN suspension in HBSS–Ca^++Mg^++ (10^5 cells/well), 40 μl of luminol (50 μM/well), 40 μl of fMLP (0.2 μM/well), 20 μl of particular NP (in the range 10^−12–10^−8 M/well). […] The maximal value of CL response curve was expressed as peak height (PHCL) for fMLP stimulant. In other cases the area under chemiluminescence curve (AUCCL) was calculated. […] Results were expressed as mean ± SD.

human PMNs [4] = experiment: fMLF-induced ROS generation by PMNs, luminol-dependent chemiluminescence; format: cell-based; details: for ROS release [% of control]: 0.2 μM fMLF, peak height PHCL, mean of three independent experiments
Procedure: as §2
Reactive oxygen species (ROS) formation by PMNs was measured using luminol-dependent chemiluminescence assay (CL) in white flat-bottom 96-well microplates (NUNC, Denmark). The reaction mixture of total volume 200 μl in each well contained: 100 μl of PMN suspension in HBSS–Ca^++Mg^++ (10^5 cells/well), 40 μl of luminol (50 μM/well), 40 μl of fMLP (0.2 μM/well), 20 μl of particular NP (in the range 10^−12–10^−8 M/well). In other experiments, the respiratory burst was triggered by phagocytosis of 40 μl heat killed (56°C/30 min) M. catarrhalis ATCC 25238 or H. influenzae ATCC 49247 at concentration of ½ of OD600 = 1 or OD600 = 1, respectively. […] The PMA stimulus at 0.1 μM final concentration was used as positive control of the relevant oxidative stress. The CL kinetics was measured at constant 37°C temperature using luminometer (Microlumat, LB96P, Berthold) and recorded as relative light units (RLU). Measuring conditions for fMLP were: interval (46 s), run time (up to 30 min). The conditions for bacterial and PMA stimulation were: interval (83 s), run time (up to 60 min). The maximal value of CL response curve was expressed as peak height (PHCL) for fMLP stimulant. In other cases the area under chemiluminescence curve (AUCCL) was calculated. Each sample was run in triplicate and the values were averaged. […] Results were expressed as mean ± SD.

Structure (SMILES)	log10 of mean AUCCL ± SEM (human PMNs [1])	type of antibacterial activity [2]	time of maximal OD increase (ONPG influx) (E. coli ML-35p) [min]	ID50 (inducible dose) for intracellular influx of ONPG (E. coli ML-35p) [µM]	type of antibacterial activity (M. catarrhalis Mc5, Mc6; both Mc strains)	increase of mean AUCCL [3] [%]	culture survived (M. catarrhalis Mc5, Mc6; Mc5 and Mc6, 0.5 h) [%]	ROS release [% of control] (human PMNs [4]; 10^-8 M NP)	ROS release [% of control] (human PMNs [4]; 10^-10 M NP)	ROS release [% of control] (human PMNs [4]; 10^-12 M NP)	activation of respiratory burst of PMNs (human PMNs [4]; neuropeptide alone, without stimulus)
CCCCCCCCCCCCCC(=O)O[C@@H]1[C@@H](C)[C@@]2(O)[C@@H](C=C(CO)C[C@]3(O)C(=O)C(C)=C[C@@H]23)[C@@H]2C(C)(C)[C@]12OC(C)=O [PMA, phorbol myristate acetate]	6.05 ± 4.32	–	–	–	–	–	–	–	–	–	–
C[C@H](N)C(=O)NCC(=O)N[C@H]1CSSC[C@@H](C(=O)O)NC(=O)[C@H](CO)NC(=O)[C@H]([C@@H](C)O)NC(=O)[C@H](Cc2ccccc2)NC(=O)[C@H]([C@@H](C)O)NC(=O)[C@H](CCCCN)NC(=O)[C@H](Cc2c[nH]c3ccccc23)NC(=O)[C@H](Cc2ccccc2)NC(=O)[C@H](Cc2ccccc2)NC(=O)[C@H](CC(N)=O)NC(=O)[C@H](CCCCN)NC1=O [SOM, somatostatin]	–	bacteriostatic	90	104.1	bacteriostatic	–	–	–	–	–	–
CSCC[C@H](NC(=O)[C@H](CC(C)C)NC(=O)CNC(=O)[C@H](Cc1ccccc1)NC(=O)[C@H](Cc1ccccc1)NC(=O)[C@H](CCC(N)=O)NC(=O)[C@H](CCC(N)=O)NC(=O)[C@@H]1CCCN1C(=O)[C@H](CCCCN)NC(=O)[C@@H]1CCCN1C(=O)[C@@H](N)CCCNC(=N)N)C(N)=O [SP, substance P]	–	–	90	29.2	–	14.2 ± 3.4	~100	179.18^a % of control	160.36^a % of control	140.83^a % of control	did not activate
